Experimental data published in US9499485B2, “Compounds that are S1P modulating agents and/or ATX modulating agents” (BIOGEN MA INC., priority 2012, dated 2016).

Assays:
Human ATX protein = target: T1, Human ATX protein (Homo sapiens, UniProt Q13822); assay: ATX biochemical FRET assay with FS-3 substrate; conditions: FS-3 2 μM, ATX 1.0 μg/mL, binned table, read-out: IC50 (μm)
T1 construct: made in house
Excerpt: ATX (Autotaxin) is a 125 KDa glycoprotein with lysophospholipase D (LPLD) activity that generates the bioactive lipid lysophosphatidic acid (LPA) from lysophosphatidylcholine (LPC). The ATX biochemical assay utilizes a FRET (fluorescence resonance energy transfer) technology platform. The fluorescence signal of FRET substrate FS-3 is quenched due to intra-molecular FRET of a fluorophore to a non-fluorescing quencher (Ferguson, C. G., et al., Org. Lett. 2006 May 11; 8(10): 2023-2026, which is incorporated by reference in its entirety). ATX catalyzes the hydrolysis of the substrate which separates the dabsyl quencher from the fluorescein reporter, which becomes fluorescent. The reaction is monitored by a SpectraMax M5 (Molecular Devices, Sunnyvale, Calif.) with at excitation wavelength 485 nm and emission wavelength 535 nm.
2×ATX assay buffer: 100 mM Tris, 280 mM NaCl, 10 mM KCl, 2 mM CaCl2, 2 mM MgCl2, pH 7.4.
Human ATX protein: expressed and purified in house. Stored at −80° C.
Substrate FS-3 (Echelon, L-2000): 100 μg in 77.74 μL H2O (1 mM stock), stored at −20° C.
Compound dilution—All compounds were provided at 10 mM in 100% DMSO. In the first well, 2 μL of 10 mM compound was added to 78 μL of DMSO (1:40 dilution). In subsequent wells 3-fold dilution (total 10 dilutions) were performed.
1×ATX assay buffer was made up with a final concentration of 1 mg/mL fatty acid free-BSA using 2×ATX assay buffer, 10 mg/ml fatty acid free-BSA and ddH2O.
ATX protein was diluted with 1×ATX assay buffer to a concentration of 1.32 μg/mL (1.32×). 38 μL was added per well to the assay plate. The final concentration of ATX in the reaction as 1.0 μg/mL.
2 μL per well of compounds was transferred to provide the desired concentration. The plate was centrifuged, then incubated at room temperature for 30 minutes on the shaker.
FS-3 was diluted with 1×ATX assay buffer to a concentration of FS-3 of 10 μM (5×). Then, 10 μL was added per well to the assay plate. The final concentration of FS-3 in the reaction was 2 μM. The plate was centrifuged. The plate was kept shaking at room temperature for 2 hours. Because FS-3 substrate is light sensitive, plates were kept covered and protected from light.
Fluorescence was measured using SpectraMax M5 (excitation at 485 nm/emission at 538 nm, top read).

human S1P4 = target: T2, human S1P4 (Homo sapiens, UniProt O95977); assay: S1P receptor calcium flux assay, antagonist format (S1P4 antagonist activity); format: cell-based; conditions: calcium mobilization, recombinant CHEM cells expressing human S1P4, stimulated with EC80 of reference agonist
T2 construct: host or cells: recombinant CHEM cells
T2 sequence (O95977 1-384): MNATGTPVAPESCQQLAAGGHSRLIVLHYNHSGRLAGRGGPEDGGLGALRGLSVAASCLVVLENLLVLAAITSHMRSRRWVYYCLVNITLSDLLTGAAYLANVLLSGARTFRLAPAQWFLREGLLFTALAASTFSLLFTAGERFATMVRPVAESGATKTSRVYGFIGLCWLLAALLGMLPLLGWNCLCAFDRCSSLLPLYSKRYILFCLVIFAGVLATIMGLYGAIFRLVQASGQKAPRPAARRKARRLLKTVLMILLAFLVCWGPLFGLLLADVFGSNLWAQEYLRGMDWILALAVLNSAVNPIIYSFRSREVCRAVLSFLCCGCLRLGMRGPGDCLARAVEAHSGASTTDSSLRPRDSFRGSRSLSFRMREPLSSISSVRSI
Protocol: Compounds that are not specific for a particular S1P receptor can cause undesirable side effects. Accordingly, compounds are tested to identify those that are specific. Accordingly, the test compounds are tested in a calcium mobilization assay/S1P receptor activity assay. The procedure is essentially as described in Davis et al. (2005) Journal of Biological Chemistry, vol. 280, pp. 9833-9841, which is incorporated by reference in its entirety with the following modifications. Calcium mobilization assays are performed in recombinant CHEM cells expressing human S1P1, S1P2, S1P3, S1P4, or S1P5 purchased from Millipore (Billerica, Mass.). To detect free intracellular calcium, S1P1, S1P2, S1P3, S1P4, or S1P5 cells are loaded with FLIPR Calcium 4 dye from Molecular Devices (Sunnyvale, Calif.). Cells are imaged for calcium mobilization using a FLIPR^TETRA equipped with a 96-well dispense head.
Agonist percentage activation determinations were obtained by assaying sample compounds and referencing the Emax control for each receptor profiled. Antagonist percentage inhibition determinations were obtained by assaying sample compounds and referencing the control EC80 wells for each receptor profiled.
Sample compounds were plated in an eight-point, four-fold dilution series in duplicate with a top concentration of 10 μM. The concentrations described here reflect the final concentration of the compounds during the antagonist assay. During the agonist assay the compound concentrations were 1.25 fold higher to allow for the final desired concentration to be achieved with further dilution by EC80 of reference agonists during the antagonist assay.
Reference agonists were handled as mentioned above serving as assay control. The reference agonists were handled as described above for Emax.
Assay was read for 180 seconds using the FLIPR^TETRA (This assay run added sample compounds and reference agonist to respective wells). At the completion of the first “Single Addition” assay run, assay plate was removed from the FLIPR^TETRA and placed at 25° C. for seven (7) minutes.
Using the EC80 values determined during the agonist assay, stimulated all pre-incubated sample compound and reference antagonist (if applicable) wells with EC80 of reference agonist. Read for 180 seconds using the FLIPR^TETRA (This assay added reference agonist to respective wells—then fluorescence measurements were collected to calculate percentage inhibition values).

| IC50 (Human ATX protein) | IC50 (human S1P4) | Compound |
| --- | --- | --- |
| 0.5 to 5 µM | – | O=C(O)C1CCN(Cc2cccc3ccc(O[C@H]4CC[C@@H](C(F)(F)F)CC4)c(C(F)(F)F)c23)CC1 [Example 25, 1-((8-(trifluoromethyl)-7-((cis-4-(trifluoromethyl)cyclohexyl)oxy)naphthalen-1-yl)methyl)piperidine-4-carboxylic acid] |
| 0.5 to 5 µM | – | O=C(O)C[C@H]1CCCN(Cc2cccc3ccc(O[C@H]4CC[C@@H](C(F)(F)F)CC4)c(C(F)(F)F)c23)C1 [Example 28, 2-((R)-1-((8-(trifluoromethyl)-7-((cis-4-(trifluoromethyl)cyclohexyl)oxy)naphthalen-1-yl)methyl)piperidin-3-yl)acetic acid] |
| > 5 µM | ≤ 5 µM | CC(C)(C)[C@H]1CC[C@H](Oc2ccc3cccc(CN4CCC(C(=O)O)CC4)c3c2)CC1 [Example 29, 1-((7-((trans-4-(tert-butyl)cyclohexyl)oxy)naphthalen-1-yl)methyl)piperidine-4-carboxylic acid] |
| > 5 µM | ≤ 5 µM | CCCCCCCOc1ccc2cccc(CN3CCC(C(=O)O)CC3)c2c1 [Example 30, 1-((7-(heptyloxy)naphthalen-1-yl)methyl)piperidine-4-carboxylic acid] |
| – | ≤ 5 µM | CC(C)(C)[C@H]1CC[C@H](Oc2ccc3c(CN4CCC(C(=O)O)CC4)cccc3c2)CC1 [Example 31, 1-((6-((trans-4-(tert-butyl)cyclohexyl)oxy)naphthalen-1-yl)methyl)piperidine-4-carboxylic acid] |
| > 5 µM | ≤ 5 µM | CCCCCCCOc1ccc2c(CN3CCC(C(=O)O)CC3)cccc2c1 [Example 32, 1-((6-(heptyloxy)naphthalen-1-yl)methyl)piperidine-4-carboxylic acid] |
| > 5 µM | ≤ 5 µM | CC(C)(C)[C@H]1CC[C@H](Oc2ccc3c(CN4CCC(CC(=O)O)CC4)cccc3c2)CC1 [Example 33, 2-(1-((6-((trans-4-(tert-butyl)cyclohexyl)oxy)naphthalen-1-yl)methyl)piperidin-4-yl)acetic acid] |
| > 5 µM | ≤ 5 µM | CCCCCCCOc1ccc2c(CN3CCC(CC(=O)O)CC3)cccc2c1 [Example 34, 2-(1-((6-(heptyloxy)naphthalen-1-yl)methyl)piperidin-4-yl)acetic acid] |

| Compound | IC50 (Human ATX protein) | IC50 (human S1P4) |
| --- | --- | --- |
| O=C(O)C1CC2CCC(C1)N2Cc1cccc2ccc(O[C@H]3CC[C@@H](C(F)(F)F)CC3)c(C(F)(F)F)c12 (stereo partly drawn) [Example 26, 8-((8-(trifluoromethyl)-7-((cis-4-(trifluoromethyl)cyclohexyl)oxy)naphthalen-1-yl)methyl)-8-azabicyclo[3.2.1]octane-3-carboxylic acid] | 0.5 to 5 µM | – |
| O=C(O)C1CC2CCCC(C1)N2Cc1cccc2ccc(O[C@H]3CC[C@@H](C(F)(F)F)CC3)c(C(F)(F)F)c12 (stereo partly drawn) [Example 27, 9-((8-(trifluoromethyl)-7-((cis-4-(trifluoromethyl)cyclohexyl)oxy)naphthalen-1-yl)methyl)-9-azabicyclo[3.3.1]nonane-3-carboxylic acid] | 0.5 to 5 µM | – |
